# Experimental data taken from ChEMBL document CHEMBL6083280, “De Novo Discovery of a Noncovalent Cell-Penetrating Bicyclic Peptide Inhibitor Targeting SARS-CoV-2 Main Protease” (J Med Chem, 2024).
# Calls of active or inactive are those of the source. The calls are words filed in the database; no cut-off is given here. Positions of bridges follow the written chain, without caps; N, C: chain ends. Residues, ends and D or L forms follow the SMILES beside them.
# How the values were obtained:
# [1] = biological target: Replicase polyprotein 1ab (Severe acute respiratory syndrome coronavirus 2, UniProt P0DTD1); experiment: Inhibition of N-terminal his-tagged SARS-CoV-2 Main protease expressed in Escherichia coli BL21 (DE3) using Dabcyl-TSAVLWSGFRICMK-Edans as substrate preincubated for 10 mins by microplate reader analysis
# SARS-CoV-2 = experiment: Antiviral activity against SARS-CoV-2 infected in human Caco-2 cells assessed as inhibition of viral infection preincubated for 1 hr followed by viral infection measured after 48 hrs by CQ1 confocal quantitative image cytometer analysis; format: functional, organism-based; conditions: for EC50: Severe acute respiratory syndrome coronavirus 2, Caco-2; for Activity: Severe acute respiratory syndrome coronavirus 2, time 49.0 hrs
Compound,IC50 [1],EC50 (SARS-CoV-2),Activity (SARS-CoV-2)
CC(C)C[C@@H]1NC(=O)[C@H](Cc2ccccc2)NC(=O)[C@@H]2CCCN2C(=O)[C@H]([C@@H](C)O)NC(=O)[C@H]([C@@H](C)O)NC(=O)[C@H]([C@@H](C)O)NC(=O)[C@H](Cc2c[nH]cn2)NC(=O)[C@H](Cc2ccccc2)NC(=O)[C@H]([C@@H](C)O)NC(=O)[C@H](C(C)C)NC(=O)[C@@H](Cc2ccc(O)cc2)NC(=O)CSC[C@@H](C(=O)NCC(N)=O)NC(=O)[C@@H]2CCCN2C(=O)[C@H](C)NC1=O,610 nM,,
CC(C)C[C@@H]1NC(=O)[C@H](Cc2ccccc2)NC(=O)[C@@H]2CCCN2C(=O)[C@H]([C@@H](C)O)NC(=O)[C@H]([C@@H](C)O)NC(=O)[C@H]([C@@H](C)O)NC(=O)[C@H](Cc2c[nH]cn2)NC(=O)[C@H](Cc2ccccc2)NC(=O)[C@H]([C@@H](C)O)NC(=O)[C@H](C(C)C)NC(=O)[C@@H](Cc2ccc(O)cc2)NC(=O)CC[C@@H](C(=O)NCC(N)=O)NC(=O)[C@@H]2CCCN2C(=O)[C@@H]2CCCN2C1=O,150 nM,> 100000 nM,
CC[C@H](C)[C@@H]1NC(=O)[C@@H](Cc2ccc(O)cc2)NC(=O)CSC[C@@H](C(N)=O)NC(=O)[C@H](C(C)C)NC(=O)[C@H](CC(C)C)NC(=O)[C@@H]2CCCN2C(=O)[C@H](Cc2ccccc2)NC(=O)[C@H]([C@@H](C)O)NC(=O)[C@H](Cc2c[nH]cn2)NC1=O,1400 nM,,inactive
CC[C@H](C)[C@@H]1NC(=O)[C@H](Cc2c[nH]cn2)NC(=O)[C@H](CO)NC(=O)[C@H](Cc2ccccc2)NC(=O)[C@H](Cc2ccc(O)cc2)NC(=O)[C@H](CCC(N)=O)NC(=O)[C@H]([C@@H](C)O)NC(=O)[C@H](Cc2ccc(O)cc2)NC(=O)CSC[C@@H](C(=O)N[C@@H](CO)C(=O)N[C@@H](CO)C(=O)N[C@@H](CCCNC(=N)N)C(=O)N[C@@H](CO)C(=O)NCC(N)=O)NC1=O ({CH2CO}-YTQYFSHICSSRSG-NH2; thioether N-9),> 100000 nM,,
CC(C)C[C@@H]1NC(=O)[C@H](Cc2ccccc2)NC(=O)[C@@H]2CCCN2C(=O)[C@H]([C@@H](C)O)NC(=O)[C@H]([C@@H](C)O)NC(=O)[C@H]([C@@H](C)O)NC(=O)[C@H](Cc2c[nH]cn2)NC(=O)[C@H](Cc2ccccc2)NC(=O)[C@H](C)NC(=O)[C@H](C(C)C)NC(=O)[C@@H](Cc2ccc(O)cc2)NC(=O)CSC[C@@H](C(=O)NCC(N)=O)NC(=O)[C@@H]2CCCN2C(=O)[C@@H]2CCCN2C1=O,1650 nM,,
CC(C)C[C@@H]1NC(=O)[C@H](Cc2ccccc2)NC(=O)[C@@H]2CCCN2C(=O)[C@H]([C@@H](C)O)NC(=O)[C@H]([C@@H](C)O)NC(=O)[C@H]([C@@H](C)O)NC(=O)[C@H](Cc2c[nH]cn2)NC(=O)[C@H](Cc2ccccc2)NC(=O)[C@H]([C@@H](C)O)NC(=O)[C@H](C(C)C)NC(=O)[C@@H](Cc2ccc(O)cc2)NC(=O)CSC[C@@H](C(=O)NCC(N)=O)NC(=O)[C@H](C)NC(=O)[C@@H]2CCCN2C1=O,1930 nM,,
CC(C)[C@@H]1NC(=O)[C@@H](Cc2ccc(O)cc2)NC(=O)CC[C@@H](C(=O)NCC(N)=O)NC(=O)[C@@H]2CCCN2C(=O)[C@@H]2CCCN2C(=O)[C@@H]2CSCc3cccc(c3)CSC[C@H](NC1=O)C(=O)N[C@@H](Cc1ccccc1)C(=O)N[C@@H](Cc1c[nH]cn1)C(=O)N[C@@H]([C@@H](C)O)C(=O)N[C@@H]([C@@H](C)O)C(=O)N[C@@H]([C@@H](C)O)C(=O)N1CCC[C@H]1C(=O)N[C@@H](Cc1ccccc1)C(=O)N2,440 nM,> 100000 nM,
CC[C@H](C)[C@@H]1NC(=O)[C@@H](Cc2ccc(O)cc2)NC(=O)CSC[C@@H](C(N)=O)NC(=O)[C@H](C(C)C)NC(=O)[C@H](CC(C)C)NC(=O)[C@@H]2CCCN2C(=O)[C@H](Cc2ccccc2)NC(=O)[C@H]([C@@H](C)O)NC(=O)[C@H](CCC(N)=O)NC1=O,1400 nM,,inactive
CC(C)C[C@@H]1NC(=O)[C@H](Cc2ccccc2)NC(=O)[C@@H]2CCCN2C(=O)[C@H](C)NC(=O)[C@H]([C@@H](C)O)NC(=O)[C@H]([C@@H](C)O)NC(=O)[C@H](Cc2c[nH]cn2)NC(=O)[C@H](Cc2ccccc2)NC(=O)[C@H]([C@@H](C)O)NC(=O)[C@H](C(C)C)NC(=O)[C@@H](Cc2ccc(O)cc2)NC(=O)CSC[C@@H](C(=O)NCC(N)=O)NC(=O)[C@@H]2CCCN2C(=O)[C@@H]2CCCN2C1=O,220 nM,,
CC(C)C[C@@H]1NC(=O)[C@H](Cc2ccccc2)NC(=O)[C@@H]2CCCN2C(=O)[C@H]([C@@H](C)O)NC(=O)[C@H]([C@@H](C)O)NC(=O)[C@H]([C@@H](C)O)NC(=O)[C@H](Cc2c[nH]cn2)NC(=O)[C@H](Cc2ccccc2)NC(=O)[C@H]([C@@H](C)O)NC(=O)[C@H](C)NC(=O)[C@@H](Cc2ccc(O)cc2)NC(=O)CSC[C@@H](C(=O)NCC(N)=O)NC(=O)[C@@H]2CCCN2C(=O)[C@@H]2CCCN2C1=O,> 10000 nM,,
CC(C)C[C@@H]1NC(=O)[C@H](Cc2ccccc2)NC(=O)[C@@H]2CCCN2C(=O)[C@H]([C@@H](C)O)NC(=O)[C@H]([C@@H](C)O)NC(=O)[C@H]([C@@H](C)O)NC(=O)[C@H](C)NC(=O)[C@H](Cc2ccccc2)NC(=O)[C@H]([C@@H](C)O)NC(=O)[C@H](C(C)C)NC(=O)[C@@H](Cc2ccc(O)cc2)NC(=O)CSC[C@@H](C(=O)NCC(N)=O)NC(=O)[C@@H]2CCCN2C(=O)[C@@H]2CCCN2C1=O,> 10000 nM,,
CC(C)C[C@@H]1NC(=O)[C@H](Cc2ccccc2)NC(=O)[C@@H]2CCCN2C(=O)[C@H]([C@@H](C)O)NC(=O)[C@H]([C@@H](C)O)NC(=O)[C@H]([C@@H](C)O)NC(=O)[C@H](Cc2c[nH]cn2)NC(=O)[C@H](C)NC(=O)[C@H]([C@@H](C)O)NC(=O)[C@H](C(C)C)NC(=O)[C@@H](Cc2ccc(O)cc2)NC(=O)CSC[C@@H](C(=O)NCC(N)=O)NC(=O)[C@@H]2CCCN2C(=O)[C@@H]2CCCN2C1=O,> 10000 nM,,
CC(C)[C@@H]1NC(=O)[C@@H](Cc2ccc(O)cc2)NC(=O)CSC[C@@H](C(=O)NCC(N)=O)NC(=O)[C@@H]2CCCN2C(=O)[C@@H]2CCCN2C(=O)[C@H](C)NC(=O)[C@H](Cc2ccccc2)NC(=O)[C@@H]2CCCN2C(=O)[C@H]([C@@H](C)O)NC(=O)[C@H]([C@@H](C)O)NC(=O)[C@H]([C@@H](C)O)NC(=O)[C@H](Cc2c[nH]cn2)NC(=O)[C@H](Cc2ccccc2)NC(=O)[C@H]([C@@H](C)O)NC1=O,370 nM,,
CC[C@H](C)[C@@H]1NC(=O)[C@@H](Cc2ccc(O)cc2)NC(=O)CSC[C@@H](C(N)=O)NC(=O)[C@H]([C@@H](C)CC)NC(=O)[C@@H]2CCCN2C(=O)[C@@H]2CCCN2C(=O)[C@H](Cc2ccccc2)NC(=O)[C@H](CO)NC(=O)[C@H](CCC(N)=O)NC1=O,1400 nM,,inactive
CC(C)C[C@@H]1NC(=O)[C@H](Cc2ccccc2)NC(=O)[C@H](C)NC(=O)[C@H]([C@@H](C)O)NC(=O)[C@H]([C@@H](C)O)NC(=O)[C@H]([C@@H](C)O)NC(=O)[C@H](Cc2c[nH]cn2)NC(=O)[C@H](Cc2ccccc2)NC(=O)[C@H]([C@@H](C)O)NC(=O)[C@H](C(C)C)NC(=O)[C@@H](Cc2ccc(O)cc2)NC(=O)CSC[C@@H](C(=O)NCC(N)=O)NC(=O)[C@@H]2CCCN2C(=O)[C@@H]2CCCN2C1=O,390 nM,,
CC(C)[C@@H]1NC(=O)[C@@H](Cc2ccc(O)cc2)NC(=O)CC[C@@H](C(N)=O)NC(=O)[C@@H]2CCCN2C(=O)[C@@H]2CCCN2C(=O)[C@@H]2CSc3c(F)c(F)c(c(F)c3F)SC[C@H](NC1=O)C(=O)N[C@@H](Cc1ccccc1)C(=O)N[C@@H](Cc1c[nH]cn1)C(=O)N[C@@H]([C@@H](C)O)C(=O)N[C@@H]([C@@H](C)O)C(=O)N[C@@H]([C@@H](C)O)C(=O)N1CCC[C@H]1C(=O)N[C@@H](Cc1ccccc1)C(=O)N2,16600 nM,> 100000 nM,
CC(C)C[C@@H]1NC(=O)[C@H](Cc2ccccc2)NC(=O)[C@@H]2CCCN2C(=O)[C@H]([C@@H](C)O)NC(=O)[C@H](C)NC(=O)[C@H]([C@@H](C)O)NC(=O)[C@H](Cc2c[nH]cn2)NC(=O)[C@H](Cc2ccccc2)NC(=O)[C@H]([C@@H](C)O)NC(=O)[C@H](C(C)C)NC(=O)[C@@H](Cc2ccc(O)cc2)NC(=O)CSC[C@@H](C(=O)NCC(N)=O)NC(=O)[C@@H]2CCCN2C(=O)[C@@H]2CCCN2C1=O,200 nM,,
CC(C)C[C@@H]1NC(=O)[C@H](C)NC(=O)[C@@H]2CCCN2C(=O)[C@H]([C@@H](C)O)NC(=O)[C@H]([C@@H](C)O)NC(=O)[C@H]([C@@H](C)O)NC(=O)[C@H](Cc2c[nH]cn2)NC(=O)[C@H](Cc2ccccc2)NC(=O)[C@H]([C@@H](C)O)NC(=O)[C@H](C(C)C)NC(=O)[C@@H](Cc2ccc(O)cc2)NC(=O)CSC[C@@H](C(=O)NCC(N)=O)NC(=O)[C@@H]2CCCN2C(=O)[C@@H]2CCCN2C1=O,5780 nM,,
CC(C)C[C@@H]1NC(=O)[C@H](Cc2ccccc2)NC(=O)[C@@H]2CCCN2C(=O)[C@H]([C@@H](C)O)NC(=O)[C@H]([C@@H](C)O)NC(=O)[C@H](C)NC(=O)[C@H](Cc2c[nH]cn2)NC(=O)[C@H](Cc2ccccc2)NC(=O)[C@H]([C@@H](C)O)NC(=O)[C@H](C(C)C)NC(=O)[C@@H](Cc2ccc(O)cc2)NC(=O)CSC[C@@H](C(=O)NCC(N)=O)NC(=O)[C@@H]2CCCN2C(=O)[C@@H]2CCCN2C1=O,510 nM,,
CC(C)C[C@@H]1NC(=O)[C@H](Cc2ccccc2)NC(=O)[C@@H]2CCCN2C(=O)[C@H]([C@@H](C)O)NC(=O)[C@H]([C@@H](C)O)NC(=O)[C@H]([C@@H](C)O)NC(=O)[C@H](Cc2c[nH]cn2)NC(=O)[C@H](Cc2cccc(F)c2)NC(=O)[C@H]([C@@H](C)O)NC(=O)[C@H](C(C)C)NC(=O)[C@@H](Cc2ccc(O)cc2)NC(=O)CSC[C@@H](C(=O)NCC(N)=O)NC(=O)[C@@H]2CCCN2C(=O)[C@@H]2CCCN2C1=O,250 nM,> 100000 nM,
